Experimental findings from patent US6897210B2, “Quinazoline derivatives and pharmaceutical compositions containing them” (Zeneca Limited, priority 1996, dated 2005) are described below.

The structures appear in SMILES notation. Where only a bound is given, the exact number is not on record here.

Data set [1] deals with VEGF receptor tyrosine kinase (Flt, KDR). The data set is described as follows: In vitro receptor tyrosine kinase inhibition test (VEGF receptor). Conditions: VEGF receptor tyrosine kinase compared with EGF receptor tyrosine kinase. The data set is classed as biochemical. The text has this: (a) In Vitro Receptor Tyrosine Kinase Inhibition Test
This assay determines the ability of a test compound to inhibit tyrosine kinase activity. […] These may then be expressed in a suitable expression system to obtain polypeptide with tyrosine kinase activity. […] This recombinant construct was co-transfected into insect cells (for example Spodoptera frugiperda 21(Sf21)) with viral DNA (eg Pharmingen BaculoGold) to prepare recombinant baculovirus.
For expression of cFlt tyrosine kinase activity, Sf21 cells were infected with plaque-pure cFlt recombinant virus at a multiplicity of infection of 3 and harvested 48 hours later. […] The suspension was centrifuged for 10 minutes at 13,000 rpm at 4° C., the supernatant (enzyme stock) was removed and stored in aliquots at −70° C. Each new batch of stock enzyme was titrated in the assay by dilution with enzyme diluent (100 mM Hepes pH 7.4, 0.2 mM sodium orthovanadate. 0.1% v/v Triton X100, 0.2 mM dithiothreitol). For a typical batch, stock enzyme is diluted 1 in 2000 with enzyme diluent and 50 μl of dilute enzyme is used for each assay well.
A stock of substrate solution was prepared from a random copolymer containing tyrosine, for example Poly (Glu, Ala, Tyr) 6:3:1 (Sigma P3899), stored as 1 mg/ml stock in PBS at −20° C. and diluted 1 in 500 with PBS for plate coating.
On the day of the assay the substrate solution was discarded and the assay plate wells were washed once with PBST (PBS containing 0.05% v/v Tween 20) and once with 50 mM Hepes pH7.4.
Test compounds were diluted with 10% dimethylsulphoxide (DMSO) and 25 μl of diluted compound was transferred to wells in the washed assay plates. “Total” control wells contained 10% DMSO instead of compound. Twenty five microliters of 40 mM manganese(II)chloride containing 8 μM adenosine-5′-triphosphate (ATP) was added to all test wells except “blank” control wells which contained maganese(II)chloride without ATP. To start the reactions 50 μl of freshly diluted enzyme was added to each well and the plates were incubated at room temperature for 20 minutes. The liquid was then discarded and the wells were washed twice with PBST. […] Plates were then incubated for 20-60 minutes at room temperature until the optical density value of the “total” control wells, measured at 405 nm using a plate reading spectrophotometer, was approximately 1.0.

For orientation: melting point means the temperature of the solid-liquid transition. Molecule `COc1cc2c(Nc3ccc(Cl)cc3F)ncnc2cc1OCCNC(=O)OC(C)(C)C` [Example 34, 7-(2-[N-tert-butoxycarbonylamino]ethoxy)4-(4-chloro-2-fluoroanilino)6-methoxyquinazoline] came in with a melting point of 190 to 191 °C. In data set [1], the “activity against VEGF and EGF receptor tyrosine kinases” value (“activity” for short) is listed as “substantially equivalent activity”.

In the case of `COc1cc2c(Nc3ccc(Cl)cc3F)ncnc2cc1OCCN1CCCC1=O.Cl` [Example 39, 4-(4-chloro-2-fluoroanilino)6-methoxy-7-(2-(2-oxopyrrolidin-1-yl)ethoxy)quinazoline hydrochloride], the melting point lay within 250 to 252 °C. Besides, in data set [1], the “activity” value is on record as “substantially equivalent activity”.

`COc1cc2c(Nc3ccc(Cl)cc3F)ncnc2cc1OCCN1CCNC1=O` [Example 40, 4-(4-chloro-2-fluoroanilino)6-methoxy-7-(2-(2-oxoimidazolidin-1-yl)ethoxy)quinazoline]: the melting point was over 250 °C. The “activity” value in data set [1] was “substantially equivalent activity”.
